Measurements as given in patent publication US9122153B2, “Cyclic compound, method for producing same, composition, and method for forming resist pattern” (MITSUBISHI GAS CHEMICAL COMPANY, INC., priority 2011, dated 2015).

Experiment: Solubility test of compound in safe solvent
Format: physicochemical
Conditions: 23° C., ultrasonic wave 30 minutes, visually evaluated; for CHN (dissolution amount): cyclohexanone; for PGME (dissolution amount): propylene glycol monomethyl ether
Experimental: The compound was precisely weighed in a test tube at 23° C.; and the target solvent was added to the compound so that a predetermined concentration of the liquid to be obtained is set; a ultrasonic wave was applied to the liquid in an ultrasonic washing machine for 30 minutes; and the state of the resulting liquid was visually evaluated.
The solubility of the compound in propylene glycol monomethyl ether (PGME) and cyclohexanone (CHN) was evaluated according to the following standard using the dissolution amount in each solvent. • A: 5.0% by weight≦dissolution amount • B: 3.0% by weight≦dissolution amount<5.0% by weight • C: dissolution amount<3.0% by weight • (2) Resolution, Shape, Roughness (LER), and Sensitivity of Resist Pattern
The dissolution amounts of compounds obtained in the above Synthesis Examples 1 and 2 and Synthesis Comparative Example 1 in propylene glycol monomethyl ether (PGME) and cyclohexanone (CHN) were evaluated using the above evaluation method and standard.

Row | SMILES | CHN (dissolution amount) | PGME (dissolution amount)
1 | Oc1cc(O)c2cc1C(c1ccc(C3CCCCC3)cc1)c1cc(c(O)cc1O)C(c1ccc(C3CCCCC3)cc1)c1cc(c(O)cc1O)C(c1ccc(C3CCCCC3)cc1)c1cc(c(O)cc1O)C2c1ccc(C2CCCCC2)cc1 (stereo not drawn) [CR-1A, reference compound] | C (dissolution amount<3.0% by weight) | B (3.0% by weight≦dissolution amount<5.0% by weight)
2 | Oc1cc(O)c2cc1C(c1ccc(I)cc1)c1cc(c(O)cc1O)C(c1ccc(I)cc1)c1cc(c(O)cc1O)C(c1ccc(I)cc1)c1cc(c(O)cc1O)C2c1ccc(I)cc1 (stereo not drawn) [CR-1] | A (5.0% by weight≦dissolution amount) | A (5.0% by weight≦dissolution amount)
3 | Oc1cc(O)c2cc1C(c1ccc(CI)cc1)c1cc(c(O)cc1O)C(c1ccc(CI)cc1)c1cc(c(O)cc1O)C(c1ccc(CI)cc1)c1cc(c(O)cc1O)C2c1ccc(CI)cc1 (stereo not drawn) [CR-2] | A (5.0% by weight≦dissolution amount) | A (5.0% by weight≦dissolution amount)
